Earlier results in PMC7395068, “The evolution of strategies to minimise the risk of human drug-induced liver injury (DILI) in drug discovery and development” (Archives of Toxicology, 2020).
Where two headings read alike, the source gives them in different places.

Settings: cited from earlier work
[1] = binary in vivo human DILI call, ref Chen 2016
[2] = human DILI, LTKB DILIrank category, ref Chen 2016

Structure (SMILES) | DILI +VE (5-8), DILI -VE (-4) [1] | DILI severity category [2] | DILI +VE (5-8), DILI -VE (-4) (in vivo) | DILI severity category (in vivo)
CN1CCN(C(=O)O[C@H]2c3nccnc3C(=O)N2c2ccc(Cl)cn2)CC1 [eszopiclone] | -VE | Ambiguous DILI-concern | – | –
CCCCCCCC/C=C\CCCCCCCC(=O)O.NCCO [ethanolamine oleate] | -VE | vNo-DILI-Concern | – | –
CCc1cc(C(N)=S)ccn1 [ethionamide] | +VE | vLess-DILI-Concern | – | –
CCC1(C)CC(=O)NC1=O (stereo not shown) [ethosuximide] | -VE | Ambiguous DILI-concern | – | –
CCOC(=O)c1cncn1[C@H](C)c1ccccc1 [etomidate] | – | – | -VE | vNo-DILI-Concern
C#C[C@]1(O)CC[C@H]2[C@@H]3CCC4=CC(=O)CC[C@@H]4[C@H]3C(=C)C[C@@]21CC [etonogestrel] | -VE | Ambiguous DILI-concern | – | –
Cc1cc(C#N)cc(C)c1Oc1nc(Nc2ccc(C#N)cc2)nc(N)c1Br [etravirine] | +VE | vMost-DILI-Concern | – | –
CO[C@H]1C[C@@H]2CC[C@@H](C)[C@@](O)(O2)C(=O)C(=O)N2CCCC[C@H]2C(=O)O[C@H]([C@H](C)C[C@@H]2CC[C@@H](OCCO)[C@H](OC)C2)CC(=O)[C@H](C)/C=C(\C)[C@@H](O)[C@@H](OC)C(=O)[C@H](C)C[C@H](C)/C=C/C=C/C=C/1C [everolimus] | -VE | Ambiguous DILI-concern | – | –
C/C(=N\O)C(C)NCC(C)(C)CNC(C)/C(C)=N/O (stereo not shown) [exametazime] | -VE | vNo-DILI-Concern | – | –
C=C1C[C@@H]2[C@H](CC[C@]3(C)C(=O)CC[C@@H]23)[C@@]2(C)C=CC(=O)C=C12 [exemestane] | +VE | vMost-DILI-Concern | – | –
O=C(c1cc(O)c(O)c(O)c1)c1ccc(O)c(O)c1O [exifone] | +VE | vMost-DILI-Concern | – | –
CN1CCC(Nc2ncc3ncnc(Nc4ccc(F)c(Cl)c4)c3n2)CC1 [falnidamol] | – | – | +VE | vMost-DILI-Concern
CC(=O)OCC(CCn1cnc2cnc(N)nc21)COC(C)=O [famciclovir] | -VE | Ambiguous DILI-concern | – | –
CC(C)(Oc1ccc(C(=O)c2ccc(Cl)cc2)cc1)C(=O)O [fenofibric acid] | -VE | Ambiguous DILI-concern | – | –
CC(C)C(=O)Oc1ccc(CO)cc1[C@H](CCN(C(C)C)C(C)C)c1ccccc1 [fesoterodine] | -VE | vNo-DILI-Concern | – | –
COc1cccc2c1[C@@H]1CN(CCCCn3c(=O)[nH]c4c(sc5ncc(-c6ccccc6)nc54)c3=O)C[C@@H]1CO2 [fiduxosin] | +VE | vMost-DILI-Concern | – | –
C[C@]12CCC(=O)C=C1CC[C@H]1[C@@H]3CC[C@](O)(C(=O)CO)[C@@]3(C)C[C@H](O)[C@@]12F [fludrocortisone] | -VE | vNo-DILI-Concern | – | –
O=C1OC2(c3ccc(O)cc3Oc3cc(O)ccc32)c2ccccc21 [fluorescein] | -VE | vNo-DILI-Concern | – | –
OCCN1CCN(CCCN2c3ccccc3Sc3ccc(C(F)(F)F)cc32)CC1 [fluphenazine] | -VE | Ambiguous DILI-concern | – | –
CCN(CC)CCN1C(=O)CN=C(c2ccccc2F)c2cc(Cl)ccc21 [flurazepam] | +VE | vLess-DILI-Concern | – | –
CO[C@H]1O[C@H](COS(=O)(=O)O)[C@@H](O[C@@H]2O[C@@H](C(=O)O)[C@@H](O[C@H]3O[C@H](COS(=O)(=O)O)[C@@H](O[C@@H]4O[C@H](C(=O)O)[C@@H](O[C@H]5O[C@H](COS(=O)(=O)O)[C@@H](O)[C@H](O)[C@H]5NS(=O)(=O)O)[C@H](O)[C@H]4O)[C@H](OS(=O)(=O)O)[C@H]3NS(=O)(=O)O)[C@H](O)[C@H]2OS(=O)(=O)O)[C@H](O)[C@H]1NS(=O)(=O)O [fondaparinux sodium] | +VE | vLess-DILI-Concern | – | –
CC(C)CN(C[C@@H](OP(=O)(O)O)[C@H](Cc1ccccc1)NC(=O)O[C@H]1CCOC1)S(=O)(=O)c1ccc(N)cc1 [fosamprenavir] | -VE | Ambiguous DILI-concern | – | –
C[C@@H](O[C@H]1OCCN(Cc2nc(O)n(P(=O)(O)O)n2)[C@H]1c1ccc(F)cc1)c1cc(C(F)(F)F)cc(C(F)(F)F)c1 [fosaprepitant] | -VE | Ambiguous DILI-concern | – | –
C[C@@H]1O[C@@H]1P(=O)(O)O [fosfomycin] | +VE | vLess-DILI-Concern | – | –
CCC(=O)O[C@@H](O[P@](=O)(CCCCc1ccccc1)CC(=O)N1C[C@H](C2CCCCC2)C[C@H]1C(=O)O)C(C)C [fosinopril] | +VE | vLess-DILI-Concern | – | –
O=C1NC(c2ccccc2)(c2ccccc2)C(=O)N1COP(=O)(O)O [fosphenytoin] | +VE | vMost-DILI-Concern | – | –
